Test results published in publication PMC5730575, “A Simple Platform for the Rapid Development of Antimicrobials” (Scientific Reports, 2017).

Legend:
[1] = system: A/CA/7/2009 H1N1 pdm09 hemagglutination of turkey red blood cells; assay: Hemagglutination inhibition (HAI) assay; format: biochemical, influenza A/CA/07/2009 pdm09 H1N1; conditions: peptides tested 50 µM to 1.76 µM, 2 fold dilutions; 1 HAU virus; 0.5% turkey RBC; non-inhibitors: even at 50 µM
A/CA/07/2009 pdm09 H1N1 = assay: 100-peptide microarray binding of pdm09 H1N1; design: species or system influenza A/CA/07/2009 pdm09 H1N1; conditions: two color fluorescent labeling (AF555/AF647); six replicate spots per peptide; versus background in empty spots, p < 0.01
[2] = cited from earlier work
S. epidermidis = assay: 100-peptide microarray binding of S. epidermidis; conditions: S. epidermidis labeled with CTO and AF647, 106 CFU/mL

| Substance | inhibition of hemagglutination by pdm09 of red blood cells (peptides) [1] | binding of pdm09 H1N1 on the peptide array (A/CA/07/2009 pdm09 H1N1) | elimination half-life [2] | binding of S. epidermidis on the peptide array (S. epidermidis) |
| --- | --- | --- | --- | --- |
| CSGQFSAKKYWEIKPMDYWK [p204] | did not prevent hemagglutination | bound | – | – |
| CSGEWRQQKMMPKSAPNKPQ [p94] | – | did not | – | – |
| CSGNETAPDNTYRYKQSAQK [p174] | did not prevent hemagglutination | bound | – | – |
| CSGKSQEIGDPDDIWNQMKW [p149] | inhibited hemagglutination | – | – | – |
| enfuvirtide | – | – | 3.8 h | – |
| CSGKVHRWKYHSRQNYTYRP [p151] | did not prevent hemagglutination | bound | – | – |
| CSGFRKHPWKHPRHKFHKPW [p104] | – | – | – | positives binders |
| CSGAVNYQEVFNKARMKKKR [p58] | did not prevent hemagglutination | bound | – | – |
| CSGYNWSRKKHKYYPRKIAY [p43] | did not prevent hemagglutination | bound | – | – |
| CSGYYDVHMGPMNDNHYFKK [p228] | did not prevent hemagglutination | bound | – | – |
| CSGAMHGPATTRPAIGRYPW [p52] | – | – | – | positives binders |
| CSGHNIYAQYGYPYDHMYEG [p125] | inhibited hemagglutination | – | – | – |
| CSGSFNQEYFPYPMIDYLKK [p227] | inhibited hemagglutination | – | – | – |
| CSGFWPRKHPFRWKHPRPKH [p107] | did not prevent hemagglutination | bound | – | – |
